Measured values reported in patent US20260102425A1 (Allergan, Inc., priority 2018, published 2026).

Test system: Staphylococcus aureus ATCC 29213
Assay: Time kill efficacy against Staphylococcus aureus ATCC 29213 (log drop after 30 seconds of exposure)
Type: cell-based
Method: Time kill efficacy experiments were performed against Staphylococcus aureus ATCC 29213 (S aureus). Plates with Tryptic Soy agar (TSA) were inoculated with cultures of S aureus and incubated at 30-35° C. for 24 hours. Bacterial cultures were harvested and sample suspensions were adjusted to contain approximately […] colony-forming units (CFU) per milliliter. […] After 30 seconds of exposure, 1 mL of the test suspension was removed and added to 9.0 ml of Dey-Engley neutralizer. One hundred μL of this neutralized suspension was plated in triplicates on TSA plates using an automated spiral plating instrument (Eddyjet 2, Neutec group Inc, New York, USA), with 7 log serial dilution mode. All bacterial plates were incubated at 30-35° C. for 2 days. The log drop values are determined as the difference between the logged CFU in the plates with and without the test article.

With sodium chlorite the “Δ log reduction in the presence of 0.5% Brij 35 compared to alone” value (0.5% Brij 35 added to 5% povidone-iodine or to 8000 ppm sodium chlorite activated at pH 5, FIGS. 5A-5B) was 1.6, the “Δ log reduction in the presence of 0.5% Pluronic F-127 compared to alone” value (0.5% Pluronic F-127 added to 5% povidone-iodine or to 8000 ppm sodium chlorite activated at pH 5, FIGS. 5A-5B) was 1.46 and the “Δ log reduction in the presence of 0.5% polysorbate 80 compared to alone” value (0.5% polysorbate 80 added to 5% povidone-iodine or to 8000 ppm sodium chlorite activated at pH 5, FIGS. 5A-5B) was 2.9. For the same substance, the “kill efficacy compared to sodium chlorite-only formulations and 5% povidone-iodine” value (800 ppm-8000 ppm sodium chlorite, pH 5 buffer, with 0.5% PS80, FIG. 2) was “more efficacious than sodium chlorite-only formulations”, the “kill efficacy compared to 5% povidone-iodine” value (4800 ppm and 6400 ppm sodium chlorite, pH 5 buffer, without PS80, FIG. 2) was “more efficacious than 5% povidone-iodine” and the “log reductions, alone” value (8000 ppm sodium chlorite activated at pH 5, alone, FIG. 5B) was 2.0-3.0. For the same substance, the “efficacy with 0.5% polysorbate 80 compared to formulations containing 0.5% Brij 35 or 0.5% Pluronic F-127” value (8000 ppm sodium chlorite activated at pH 5, FIG. 5B) was “significantly greater”, the log reduction (8000 ppm sodium chlorite activated with pH 2 buffer, 30 seconds exposure, FIG. 1, n=3) was 5.0 and the log reduction (8000 ppm sodium chlorite activated with pH 3 buffer, 30 seconds exposure, FIG. 1, n=3) was 5.0. The log reduction (8000 ppm sodium chlorite activated with pH 4 buffer, 30 seconds exposure, FIG. 1, n=3) was 5.0, the log reduction (8000 ppm sodium chlorite activated with pH 5 buffer, 30 seconds exposure, FIG. 1, n=3) was 2.4 and the “effect of 0.5% PS80 on log reduction” value (8000 ppm sodium chlorite pH4, 10% FBS, 0.5% PS80, FIG. 6) was “significantly increased the log reduction”. The “bactericidal effectiveness on addition of PS80 at lower concentrations” value (8000 ppm sodium chlorite pH 4, 10% FBS, PS80 0.015% or 0.025%, FIG. 6) was “not significantly affected”, the “effect of the presence of FBS on log reduction” value (8000 ppm sodium chlorite pH 4 and 0.5% PS80, with 10% FBS, FIG. 6) was “essentially unaffected” and the “effect of added Brij 35 on kill efficacy” value (8000 ppm sodium chlorite pH 5 plus Brij 35 0.05%-0.5%, FIG. 3) was “enhanced the efficacy”. For the same substance, the “effect of added Pluronic F-127 on kill efficacy” value (8000 ppm sodium chlorite pH 5 plus Pluronic F-127 at 0.25% and 0.5%, FIG. 4, N=1) was “appeared to augment the efficacy”, the log reduction (8000 ppm sodium chlorite, pH 4 buffer, absence of both 10% FBS and PS80, FIG. 6) was “about 5” and the log reduction (8000 ppm sodium chlorite, pH 4 buffer, in the presence of 10% FBS (organic load), no PS80, FIG. 6) was “about 2”.
